In US20230348362A1, “LIPID COMPOUNDS AND LIPID NANOPARTICLE COMPOSITIONS” (Suzhou Abogen Biosciences Co., Ltd., priority 2021, published 2023):

How the values were obtained:
Type in all cases: physicochemical
[1] = Lipid nanoparticle size and polydispersity by dynamic light scattering; settings: LNP of lipid/DSPC/cholesterol/PEG-lipid 50:10:38.5:1.5 encapsulating hEPO mRNA
How it was run: (§1)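 LNPs made from ionizable lipid/DSPC/cholesterol/PEG-lipid (50:10:38.5:1.5) and mRNA in citrate pH 4 by microfluidic mixing, lipid:mRNA about 10:1–30:1 w/w, then dialysed into DPBS and filtered. Size and PDI measured by DLS in backscatter mode; encapsulation efficiency measured by RiboGreen assay.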

[2] = Encapsulation efficiency of lipid nanoparticles, Quant-it Ribogreen RNA assay; settings: LNP of lipid/DSPC/cholesterol/PEG-lipid 50:10:38.5:1.5 encapsulating hEPO mRNA
How it was run: as §1

[3] = Apparent pKa of LNP formulations, TNS fluorescence assay; settings: LNP cationic lipid/DSPC/cholesterol/DMG-PEG 50/10/38.5/1.5 mol %
Description: As reported in literature, the apparent pKa of LNP formulations correlates with the delivery efficiency of LNPs for nucleic acids in vivo. The apparent pKa of each formulation was determined using an assay based on fluorescence of 2-(p-toluidino)-6-napthalene sulfonic acid (TNS). LNP formulations comprising of cationic lipid/DSPC/cholesterol/DMG-PEG (50/10/38.5/1.5 mol %) in PBS were prepared as described above. TNS was prepared as a 300 μM stock solution in distilled water. LNP formulations were diluted to 0.1 mg/mL total lipid in 3 mL of buffered solutions containing 50 mM sodium citrate, 50 mM sodium phosphate, 50 mM sodium borate, and 30 mM sodium chloride where the pH ranged from 3 to 9. An aliquot of the TNS solution was added to give a final concentration of […] and following vortex mixing fluorescence intensity was measured at room temperature in a Molecular Devices Spectramax iD3 spectrometer using excitation and mission wavelengths of 325 nm and 435 nm. A sigmoidal best fit analysis was applied to the fluorescence data and the pKa value was measured as the pH giving rise to half-maximal fluorescent intensity.

| polydispersity [1] | size (nm) [1] [nm] | Encapsulation Efficiency [2] [%] | Apparent Pka [3] | Compound |
| --- | --- | --- | --- | --- |
| 0.06 | 79.56 | 91.52 | 6.49 | CCCCCCCCC(CCCCCC)CNC(=O)CCCCCN(CCCCCO)CCN(CCCCC(COC(=O)CCCCCCC)COC(=O)CCCCCCC)C1CCCCCCC1 (stereo not drawn) [Compound 210] |
| 0.076 | 90.8 | 91.9 | 6.709 | CCCCCCCCCCCOC(=O)CCCCCN(CCN(CCO)CCCCCC(=O)OCC(CCCCCC)CCCCCCCC)C1CCC1 (stereo not drawn) [Compound 4] |
| 0.039 | 57.5 | 95.5 | 6.686 | CCCCCCCCC(CCCCCCCC)CNC(=O)CCCCCN(CCO)CCN(CCCCCC(=O)OCC(CCCCCCCC)CCCCCCCC)C1CCCCC1 [Compound 23] |
| 0.055 | 70.07 | 93.34 | 6.476 | CCCCCCCCC(CCCCCCCC)COC(=O)CCCCCN(CCO)CCN(CCCCCOC(=O)CCCCC=C(CCCCCC)CCCCCC)C1CCC1 [Compound 87] |
| 0.043 | 86.61 | 95.02 | 6.814 | CCCCCCCCC(CCCCCCCC)COC(=O)CCCCCN(CCO)CCCCN(CCCCCC(=O)OCC(CCCCCCCC)CCCCCCCC)C1CCC1 [Compound 86] |
| 0.114 | 57.78 | 93.90 | 6.162 | CCCCCCCCC(CCCCCC)COC(=O)CCCCCN(CCO)CCN(CCCCCC(=O)OCC(CCCCCC)CCCCCCCC)C1CCCCCC1 (stereo not drawn) [Compound 24] |
| 0.082 | 77.17 | 90.14 | 6.407 | CCCCCCCCCOC(=O)CCCCCN(CCN(CCO)CCCCCC(=O)OCC(CCCCCCCC)CCCCCCCC)C1CCCCC1 [Compound 102] |
| 0.121 | 56.62 | 92.18 | 6.255 | CCCCCCCCCCCCCCCCOC(=O)CCCCCN(CCN(CCO)CCCCCC(=O)OCC(CCCCCCCC)CCCCCCCC)C1CCCCCCC1 [Compound 131] |
| 0.267 | 74.57 | 94.56 | 5.990 | CCCCCCCCC(CCCCCCCC)COC(=O)CCCCCN(CCO)CCN(CCCCCOC(=O)OCC(CCCCCCCC)CCCCCCCC)C1CCCCC1 [Compound 133] |

Second part, the compound before the results:

| Compound | polydispersity [1] | size (nm) [1] [nm] | Encapsulation Efficiency [2] [%] | Apparent Pka [3] |
| --- | --- | --- | --- | --- |
| CCCCCCCCCCCOC(=O)CCCCCN(CCN(CCO)CCCCC(COC(=O)CCCCCCC)COC(=O)CCCCCCC)C1CCCC1 [Compound 183] | 0.032 | 103.2 | 92.26 | 6.858 |
| CCCCCCCCC(CCCCCC)CNC(=O)CCCCCN(CCOCCO)CCN(CCCCC(COC(=O)CCCCCCC)COC(=O)CCCCCCC)C1CCCC1 (stereo not drawn) [Compound 205] | 0.023 | 104.3 | 81.79 | 6.917 |
| CCCCCCCC(=O)OCC(CCCCN(CCO)CCN(CCCCC(COC(=O)CCCCCCC)COC(=O)CCCCCCC)C1CCCCCCC1)COC(=O)CCCCCCC [Compound 161] | 0.090 | 72.08 | 87.54 | 6.02 |
| CCCCCCCCC(CCCCCC)CNC(=O)CCCCCN(CCO)CCN(CCCCC(COC(=O)CCCCCCC)COC(=O)CCCCCCC)C1CCCCCC1 (stereo not drawn) [Compound 143] | 0.057 | 69.16 | 90.39 | 6.687 |
| CCCCCCCC(=O)OCC(CCCCN(CCO)CCN(CCCCC(COC(=O)CCCCCCC)COC(=O)CCCCCCC)C1CCCCC1)COC(=O)CCCCCCC [Compound 141] | 0.128 | 63.69 | 88.11 | 6.475 |
| CCCCCCCCC(CCCCCC)CNC(=O)CCCCCCN(CCO)CCN(CCCCC(COC(=O)CCCCCCC)COC(=O)CCCCCCC)C1CCCC1 (stereo not drawn) [Compound 230] | 0.051 | 89.46 | 89.65 | 6.742 |
| CCCCCCCCC(CCCCCCCC)COC(=O)CCCCCN(C)CCN(CCCCCC(=O)OCC(CCCCCCCC)CCCCCCCC)C1CCC(O)CC1 (stereo not drawn) [Compound 51] | 0.028 | 83.92 | 97.0 | 6.579 |
| CCCCCCCCC(CCCCCCCC)COC(=O)CCCCCN(CCC)CCN(CCCCCC(=O)OCC(CCCCCCCC)CCCCCCCC)C1CCC(O)CC1 (stereo not drawn) [Compound 52] | 0.089 | 67.63 | 95.6 | 6.114 |
| CCCCCCCCC(CCCCCCCC)COC(=O)CCCCCN(CCO)CCN(CCCCCC(=O)OCC(CCCCCCCC)CCCCCCCC)C1CCC(F)(F)CC1 [Compound 66] | 0.068 | 56.3 | 93.17 | 6.009 |
| CCCCCCCCC(CCCCCC)COC(=O)CCCCCN(CCO)CCN(CCCCC(COC(=O)CCCCCCC)COC(=O)CCCCCCC)C1CC1 (stereo not drawn) [Compound 154] | 0.101 | 56.95 | 87.11 | 6.061 |
| CCCCCCCCC(CCCCCC)CNC(=O)CCCCCN(CCO)CCN(CCCCC(COC(=O)CCCCCCC)COC(=O)CCCCCCC)C1CC1 (stereo not drawn) [Compound 155] | 0.071 | 70.67 | 89.57 | 6.28 |
| CCCCCCCCC(CCCCCCCC)CNC(=O)CCCCCN(CC=C(C)C)CCN(CCO)CCCCCC(=O)OCC(CCCCCCCC)CCCCCCCC [Compound 121] | 0.077 | 70.01 | 93.23 | 6.583 |
| CCCCCCCCC(CCCCCC)CNC(=O)CCCCCN(CCOCCO)CCN(CCCCC(COC(=O)CCCCCCC)COC(=O)CCCCCCC)C1CCCCCC1 (stereo not drawn) [Compound 207] | 0.071 | 87.97 | 87.94 | 6.657 |
| CCCCCCCCC(CCCCCCCC)CNC(=O)CCCCCN(CCN(CCCO)CCCCCC(=O)OCC(CCCCCCCC)CCCCCCCC)C1CCC1 [Compound 76] | 0.036 | 84.12 | 92.30 | 6.322 |
| CCCCCCCCC(CCCCCC)COC(=O)CCCCCN(CCCCN(CCO)CCCCC(COC(=O)CCCCCCC)COC(=O)CCCCCCC)C1CCCCCCC1 (stereo not drawn) [Compound 194] | 0.15 | 102.1 | 84.59 | 6.705 |
| CCCCCCCCOC(CCCCCN(CCO)CCN(CCCCCC(=O)NCC(CCCCCC)CCCCCCCC)C1CCCCCC1)OCCCCCCCC (stereo not drawn) [Compound 202] | 0.042 | 84.35 | 88.47 | 6.738 |
| CCCCCCCCC(CCCCCCCC)COC(=O)CCOCCN(CCO)CCN(CCOCCC(=O)OCC(CCCCCCCC)CCCCCCCC)C1CCCCC1 [Compound 113] | 0.012 | 89.42 | 92.93 | 6.364 |
| CCCCCCCCC(CCCCCC)CNC(=O)CCCCCN(CCCCCO)CCN(CCCCC(COC(=O)CCCCCCC)COC(=O)CCCCCCC)C1CCCC1 (stereo not drawn) [Compound 224] | 0.027 | 104.1 | 85.65 | 6.748 |
